From paper PMC9575645 (Signal Transduction and Targeted Therapy, 2022)

How the values were obtained:
HRT18G = test: Cytotoxicity, MTT assay, HRT18G; type: cell-based, human
Description: (§1) The cytotoxic effects of the chemicals and their solvents were tested by the MTT assay,[44] and its procedure is described in Supplementary Information.
(§2) The cytotoxic effects of the chemicals and their solvents used were tested by the MTT assay as described previously.^10 In brief, the chemicals were dissolved in DMSO to a stock concentration of 10 mM, and then freshly serially diluted in serum-free medium before being added to cell culture monolayers. The absorbance was measured using an enzyme-linked immunosorbent assay (ELISA) reader at an optical density (OD) of 570 nm. The percent cell viability was calculated using the following formula, [(ODsample˗ODblank)/(ODcontrol˗ODblank)] × 100%. According to the cell cytotoxicity data, dose-response curves were generated for the calculation of CC50 using GraphPad Prism software version 8.4.2.

[1] = test system: Porcine sapovirus (Cowden); settings: for IC50: Porcine sapovirus (Cowden), LLC-PK cells
lipid droplets (LDs) = test: BODIPY lipid droplet immunofluorescence in SARS-CoV-2-infected Vero E6 cells; type: cell-based, African green monkey; settings: SARS-CoV-2-infected cells, MOI = 0.1 FFU; 20 µM
Description: To characterize the dynamics of LD formation, apoptotic and necroptotic cells, and virus infectivity, an IFA was performed with the […], MDCK, Caco-2, Vero E6, MA104, MARC-145, LLC-PK, and HRT-18G cells, infected with or without each virus, and treated with vehicles or chemicals at the different time points (Table S3), or transfected with siRNA or scrambled siRNA as described above.^ 16^,27^,28 Briefly, cells were prepared in 8-well chamber slides infected with IAV, SARS-CoV-2, BCoV, PEDV, RVA, PRRSV, or PSaV at an MOI of 1 (IAV), or MOI of 0.1 (SARS-CoV-2, BCoV, PEDV, RVA, PRRSV, or PSaV) and treated with or without chemicals. […] Subsequently, cells were washed thrice with PBS (pH 7.4) and mounted with SlowFade Gold antifade reagent containing 1 × DAPI solution (Molecular Probes) for nucleus staining, observed with a LSM 800 confocal microscope, and analysed using Zen Blue Software 2.6 (Carl Zeiss; Jena, Germany).
The number and size of intracellular LDs were measured as described previously.^28 Briefly, four images were taken of each sample and converted into a pixel unit, and the data were processed and quantified using Adobe Photoshop CS6. […] The results were expressed as relative values, where the average number and size of pixels of positive color in virus-infected groups were normalized to those of the mock-treated, mock-infected control.

[2] = test system: Species A Rotavirus (NCDV); settings: for IC50: Species A Rotavirus (NCDV), MA104 cells
[3] = test system: Porcine epidemic diarrhea coronavirus (QIAP1401); test: In vitro antiviral activity against PEDV in Vero E6 cells (CCIF viral yield); type: cell-based; settings: for IC50: Vero E6 cells
Description: Cells were grown in 6- or 12-well plates or 8-well chamber slides to the desired confluency and then washed twice with phosphate-buffered saline (PBS, pH 7.4). They were then mock-inoculated with medium only or virus-inoculated with various multiplicities of infection (MOI): MOI of 0.01 or 1 FFU/cell for IAV, and MOI of 0.01 or 0.1 FFU/cell for SARS-CoV-2, BCoV, PEDV, PRRSV, and PSaV. Thereafter, each inoculum was absorbed for 1 h, and the cells were washed twice with PBS (pH 7.4). As shown in Supplementary Table 4, further treatments and incubations varied dependent on the virus species used. Cells treated with PKA inhibitor H89 (5 μM or 50 μM concentration) or vehicle-treated immediately after absorption of IAV at an MOI of 1 FFU or SARS-CoV-2 at an MOI of 0.1 FFU were incubated for 24 and 36 h, respectively, and each cell lysate was used for the detection of HSL and pHSL by western blot analysis as described below. Cells treated with lipase inhibitors at the median incubation time of IAV or SARS-CoV-2 as described in the above condition were supplemented with LA, OA, or PA at 100 µM concentration and left incubation for further median incubation time. The cells were used to assess levels of intracellular TAGs, cholesterol, FFAs, glycerol, FAO, proinflammatory cytokines as well as viral genome copy numbers and virus titers as described below and in Supplementary Information.
To determine the antiviral effects of chemicals, serial 10-fold dilutions of each cell culture supernatant after three cycles of freezing and thawing cycles were prepared in appropriate medium supplemented with 100 U/mL penicillin and 100 μg/mL streptomycin as described above. To determine the viral infectivity titer in lung tissues from the hamsters challenged with or without SARS-CoV-2, or administered with or without inhibitors as described above, aseptically sampled lungs from five hamsters per group at day five post-virus infection were harvested. Cleared supernatants from lung tissue as produced from IAV-infected mice above were serially tenfold-diluted with virus growth medium. […] The cells were washed twice with PBS (pH 8.0), mounted with 60% glycerol, and observed byr inverted fluorescence microscopy. The number of cells showing a viral antigen-positive signal at the endpoint dilution were counted. IC50 was calculated using GraphPad Prism software version 8.4.2. […] CC50 data from the MTT assay and IC50 from the IF assay were both calculated using GraphPad Prism software version 8.4.2.

[4] = In vivo toxicity in mice (body weight, gross and histopathological organ changes); settings: for gross and histopathological changes in major organs (liver, lung, kidney, heart, spleen): 0.1, 1, or 10 mg kg^-1 d^-1 Bid for 4 consecutive days
[5] = test system: Influenza A virus (H1N1) (PR8); settings: for SI (CC50/IC50) / IC50: Influenza A virus (H1N1) (PR8); for IC50: A549 cells
MA104 = test: Cytotoxicity, MTT assay, MA104; type: cell-based, African green monkey
Description: as §1, §2

CN(C)C(=O)Nc1cccc(-c2ccc(N(C)C)cc2)c1 [Atglistatin]
CC50 (HRT18G): 182 ± 2.6 µM | SI (CC50/IC50) [1]: 72 | IC50 [1]: 3.11 ± 0.39 µM | intracellular LDs (BODIPY) (lipid droplets (LDs)): Retention of LDs | SI (CC50/IC50) [2]: 32 | IC50 [2]: 6.7 ± 0.49 µM | SI (CC50/IC50) [3]: 116 | IC50 [3]: 1.96 ± 0.14 µM | gross and histopathological changes in major organs (liver, lung, kidney, heart, spleen) [4]: no gross and histopathological changes | overt signs of toxicity, including loss of body weight ([4]; intraperitoneal 10 mg kg^-1 d^-1): did not induce any overt signs of toxicity | virus replication (genome copy number, infectious progeny) [5]: inhibiting the replication | SI (CC50/IC50) [5]: 251 | IC50 [5]: 0.82 ± 0.08 µM | CC50 (MA104): 214.5 ± 2 µM

COc1nn(-c2ccc(NC(=O)OCc3ccccc3)c(C)c2)c(=O)o1 [CAY10499]
CC50 (HRT18G): 104 ± 9.1 µM | SI (CC50/IC50) [1]: 9 | IC50 [1]: 11.8 ± 2.6 µM | intracellular LDs (BODIPY) (lipid droplets (LDs)): Retention of LDs | SI (CC50/IC50) [2]: 5 | IC50 [2]: 20.9 ± 5.06 µM | SI (CC50/IC50) [3]: 30 | IC50 [3]: 3.19 ± 0.42 µM | gross and histopathological changes in major organs (liver, lung, kidney, heart, spleen) [4]: no gross and histopathological changes | virus replication (genome copy number, infectious progeny) [5]: inhibiting the replication | SI (CC50/IC50) [5]: 27 | IC50 [5]: 4.13 ± 0.46 µM | CC50 (MA104): 107 ± 5.6 µM
